# Measured values taken from patent publication US10183949B2, “Pyrimidinone derivative having autotaxin-inhibitory activity” (The University of Tokyo, priority 2014, dated 2019).
# Molecular target: T1, Human autotaxin enzyme (Homo sapiens, UniProt Q13822)
# T1 construct: purchased R&D System
# Test: Evaluation of autotaxin inhibitor, 18:0 Lyso PC / choline assay (Test Example 2)
# Format: biochemical
# Conditions: human autotaxin enzyme, 18:0 Lyso PC substrate, choline assay, room temperature 2 hours; read-out: Inhibitor activity (IC50)
# Outline: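 Human autotaxin in 100 mM Tris-HCl pH 7.5, 150 mM NaCl, 5 mM MgCl2, 0.05% Triton X-100 reacted with 18:0 Lyso PC (200 μM stock) and test compound 2 h at room temperature. Released choline quantified via choline oxidase/peroxidase resorufin fluorescence (ex 531/em 598 nm, 20 min); inhibition vs no-compound and no-enzyme controls, concentration-response curve.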
row,SMILES,IC50
1,COC(=O)Nc1cc(Cl)ccc1-c1cc(=O)n(CC(=O)NC(C)(C)C(F)(F)F)c(C)n1 [Compound I-0457],< 10 nM
2,COC(=O)Nc1cc(Cl)ccc1-c1cc(=O)n(CC(=O)N2CCC(C(N)=O)CC2)c(C)n1 [Compound I-0458],< 10 nM
3,COC(=O)Nc1cc(Cl)ccc1-c1cc(=O)n(CC(=O)N2CCN(C(N)=O)CC2)c(C)n1 [Compound I-0459],10 to 100 nM
4,O=C(Cn1cnc(-c2ccc(Cl)cc2)cc1=O)NCCCNC(=O)c1ccc2[nH]nnc2c1 [Compound I-0460],≥ 1000 nM
5,Cc1nc(-c2ccc(Cl)cc2NC(=O)C2CC2)cc(=O)n1CC(=O)NC1(C(F)(F)F)CC1 [Compound I-0461],10 to 100 nM
6,Cc1nc(-c2ccc(Cl)cc2NC(=O)C2CC2)cc(=O)n1CC(=O)NC(C)(C)C(F)(F)F [Compound I-0462],10 to 100 nM
7,Cc1nc(-c2ccc(Cl)cc2NC(=O)C2CC2)cc(=O)n1CC(=O)N1CCC(C(N)=O)CC1 [Compound I-0463],10 to 100 nM
8,COC(=O)Nc1cc(Cl)ccc1-c1cc(=O)n(CC(=O)NCCNS(C)(=O)=O)c(C)n1 [Compound I-0464],10 to 100 nM
9,CNS(=O)(=O)CCNC(=O)Cn1c(C)nc(-c2ccc(Cl)cc2NC(=O)OC)cc1=O [Compound I-0465],< 10 nM
10,COC(=O)Nc1cc(Cl)ccc1-c1cc(=O)n(CC(=O)NC2(c3nc(C)no3)CC2)c(C)n1 [Compound I-0467],10 to 100 nM
11,CC(C)(C)C(=O)Nc1cc(Cl)ccc1-c1cc(=O)n(CC(=O)N2CCC(C(N)=O)CC2)cn1 [Compound I-0468],10 to 100 nM
12,CC(C)(C)C(=O)Nc1cc(Cl)ccc1-c1cc(=O)n(CC(=O)NCC2CCC(=O)NC2)cn1 (centres unmarked) [Compound I-0469],100 to 1000 nM
13,COC(=O)Nc1cc(Cl)ccc1-c1cc(=O)n(CC(=O)NC2(c3nc(=O)o[nH]3)CC2)c(C)n1 [Compound I-0470],< 10 nM
14,COC(=O)Nc1cc(Cl)ccc1-c1cc(=O)n(CC(=O)N2CCC(C(=N)NO)CC2)c(C)n1 [Compound I-0471],10 to 100 nM
15,O=C(Cn1cnc(-c2ccc(Cl)cc2)cc1=O)NCCCCNC(=O)c1ccc2nn[nH]c2c1 [Compound I-0472],≥ 1000 nM
16,Cc1nc(-c2ccc(Cl)cc2NC(=O)C2CC2)cc(=O)n1CC(=O)NCCNS(C)(=O)=O [Compound I-0473],10 to 100 nM
17,CNS(=O)(=O)CCNC(=O)Cn1c(C)nc(-c2ccc(Cl)cc2NC(=O)C2CC2)cc1=O [Compound I-0474],10 to 100 nM
18,Cc1noc(C2(NC(=O)Cn3c(C)nc(-c4ccc(Cl)cc4NC(=O)C4CC4)cc3=O)CC2)n1 [Compound I-0475],10 to 100 nM
19,O=C(Cn1cnc(-c2ccc(Cl)cc2)cc1=O)NCCCCCNC(=O)c1ccc2[nH]nnc2c1 [Compound I-0476],≥ 1000 nM
20,CC(C)(C)NC(=O)c1cccc(Cn2cnc(-c3ccc(Cl)cc3NC(=O)C(C)(C)C)cc2=O)c1 [Compound I-0477],100 to 1000 nM
21,CC(C)(C)C(=O)Nc1cc(Cl)ccc1-c1cc(=O)n(Cc2cccc(C(=O)NCC(N)=O)c2)cn1 [Compound I-0478],100 to 1000 nM
22,CNC(=O)NC1CCN(C(=O)Cn2c(C)nc(-c3ccc(Cl)cc3NC(=O)C3CC3)cc2=O)CC1 [Compound I-0479],10 to 100 nM

# The next lines start with the values.
row,IC50,SMILES
1,10 to 100 nM,COC(=O)Nc1cc(Cl)ccc1-c1cc(=O)n(CC(=O)NC2(c3ccc(F)cc3)COC2)c(C)n1 [Compound I-0480]
2,10 to 100 nM,COC(=O)Nc1cc(Cl)ccc1-c1cc(=O)n(CC(=O)N2CCN(CC(F)(F)F)CC2)c(C)n1 [Compound I-0481]
3,< 10 nM,COC(=O)Nc1cc(Cl)ccc1-c1cc(=O)n(CC(=O)N2CCC(c3nc(=O)o[nH]3)CC2)c(C)n1 [Compound I-0482]
4,100 to 1000 nM,O=C(Cn1cnc(-c2ccc(Cl)cc2)cc1=O)NCCCCCCNC(=O)c1ccc2nn[nH]c2c1 [Compound I-0483]
5,10 to 100 nM,Cc1nc(-c2ccc(Cl)cc2NC(=O)C2CC2)cc(=O)n1CC(=O)NC1(c2ccc(F)cc2)COC1 [Compound I-0484]
6,10 to 100 nM,Cc1nc(-c2ccc(Cl)cc2NC(=O)C2CC2)cc(=O)n1CC(=O)N1CCN(CC(F)(F)F)CC1 [Compound I-0485]
7,100 to 1000 nM,CC(C)(C)C(=O)Nc1cc(Cl)ccc1-c1cc(=O)n(Cc2cccc(C(=O)NC(CO)CO)c2)cn1 [Compound I-0486]
8,100 to 1000 nM,CCNC(=O)N1CCC(NC(=O)Cn2cnc(-c3ccc(Cl)cc3NC(=O)C(C)(C)C)cc2=O)CC1 [Compound I-0487]
9,100 to 1000 nM,CC(C)(C)C(=O)Nc1cc(Cl)ccc1-c1cc(=O)n(Cc2cccc(C(=O)NCc3c[nH]nn3)c2)cn1 [Compound I-0488]
10,10 to 100 nM,CC(C)(C)C(=O)Nc1cc(Cl)ccc1-c1cc(=O)n(Cc2cccc(C(=O)N3CCC(O)CC3)c2)cn1 [Compound I-0489]
11,100 to 1000 nM,CCS(=O)(=O)N1CCN(C(=O)Cn2cnc(-c3ccc(Cl)cc3NC(=O)C(C)(C)C)cc2=O)CC1 [Compound I-0490]
12,100 to 1000 nM,CC(C)(C)C(=O)Nc1cc(Cl)ccc1-c1cc(=O)n(Cc2cccc(C(=O)Nc3cnccc3O)c2)cn1 [Compound I-0491]
13,10 to 100 nM,CC(C)(C)C(=O)Nc1cc(Cl)ccc1-c1cc(=O)n(Cc2cccc(C(=O)Nc3cccnc3O)c2)cn1 [Compound I-0492]
14,≥ 1000 nM,CC(C)(C)C(=O)Nc1cc(Cl)ccc1-c1cc(=O)n(Cc2cccc(C(=O)Nc3ccnc(O)c3)c2)cn1 [Compound I-0493]
15,< 10 nM,COC(=O)Nc1cc(Cl)ccc1-c1cc(=O)n(CC(=O)N2CCC(CC(=O)OC(C)(C)C)CC2)c(C)n1 [Compound I-0494]
16,10 to 100 nM,CC(C)(C)C(=O)Nc1cc(Cl)ccc1-c1cc(=O)n(Cc2cccc(C(=O)N3CCC4(COC4)C3)c2)cn1 [Compound I-0495]
17,10 to 100 nM,Cc1nc(-c2ccc(Cl)cc2NC(=O)C2CC2)cc(=O)n1CC(=O)N1CCC(CC(=O)OC(C)(C)C)CC1 [Compound I-0496]
18,10 to 100 nM,CC(C)(C)C(=O)Nc1cc(Cl)ccc1-c1cc(=O)n(Cc2cccc(C(=O)N3CCC(C(N)=O)CC3)c2)cn1 [Compound I-0497]
19,100 to 1000 nM,CC(C)(C)C(=O)Nc1cc(Cl)ccc1-c1cc(=O)n(Cc2cccc(C(=O)NCC3CCC(=O)NC3)c2)cn1 (centres unmarked) [Compound I-0498]
20,100 to 1000 nM,CC(=O)Nc1cc(Cl)ccc1-c1cc(=O)n(CC(=O)N2CCN(CCC(=O)c3ccc4[nH]c(=O)oc4c3)CC2)cn1 [Compound I-0499]
21,10 to 100 nM,CCNC(=O)N1CCC(NC(=O)c2cccc(Cn3cnc(-c4ccc(Cl)cc4NC(=O)C(C)(C)C)cc3=O)c2)CC1 [Compound I-0500]
22,10 to 100 nM,CCS(=O)(=O)N1CCN(C(=O)c2cccc(Cn3cnc(-c4ccc(Cl)cc4NC(=O)C(C)(C)C)cc3=O)c2)CC1 [Compound I-0501]
